Patent publication US9662323B2, “Compounds having muscarinic receptor antagonist and beta2 adrenergic receptor agonist activity” (CHIESI FARMACEUTICI S.p.A., priority 2015, dated 2017)

Legend:
Human β2 adrenoceptor = target: T1, Human β2 adrenoceptor (Homo sapiens, UniProt P07550); test: β2 Adrenoceptor Radioligand Binding Assay; settings: human β2 adrenoceptor membranes, 125-I Cyanopindolol; read-out: B2 binding affinity (Ki class)
T1 construct: purchased Perkin Elmer
Procedure, shortened: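 Membranes were incubated 1 h at room temperature in 25 mM HEPES, 0.5% BSA, 1 mM EDTA, 0.02% ascorbic acid, pH 7.4, with 0.5% DMSO final. Bound radioligand was collected by GF/C filtration and counted by scintillation. IC50 values from competition curves were converted to Ki by Cheng–Prusoff.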

Human M3 receptor = target: T2, Human M3 receptor (Homo sapiens, UniProt P20309); test: M3 Receptor Radioligand Binding Assay; settings: human M3 receptor membranes, [3H]-N-methyl scopolamine; read-out: M3 binding affinity (Ki class)
T2 construct: purchased Perkin Elmer
Procedure, shortened: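 Radioligand binding with 0.5% (v/v) final DMSO, incubated 2 h at room temperature with shaking. Membranes were collected on GF/C filters pre-treated with 0.5% polyethyleneimine, washed four times with assay buffer, and counted by scintillation.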

T1 sequence (P07550 whole entry): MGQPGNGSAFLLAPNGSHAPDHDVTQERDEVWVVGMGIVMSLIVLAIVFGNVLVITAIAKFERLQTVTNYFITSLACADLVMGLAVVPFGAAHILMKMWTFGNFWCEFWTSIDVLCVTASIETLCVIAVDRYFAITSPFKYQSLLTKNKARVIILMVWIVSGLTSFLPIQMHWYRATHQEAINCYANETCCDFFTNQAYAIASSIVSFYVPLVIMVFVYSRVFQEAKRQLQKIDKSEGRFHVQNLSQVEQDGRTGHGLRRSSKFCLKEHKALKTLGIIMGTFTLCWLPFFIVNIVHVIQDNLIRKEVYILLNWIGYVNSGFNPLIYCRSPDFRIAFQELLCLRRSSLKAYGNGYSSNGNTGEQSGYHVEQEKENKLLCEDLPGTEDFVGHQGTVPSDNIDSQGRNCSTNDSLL
T2 sequence (P20309 whole entry): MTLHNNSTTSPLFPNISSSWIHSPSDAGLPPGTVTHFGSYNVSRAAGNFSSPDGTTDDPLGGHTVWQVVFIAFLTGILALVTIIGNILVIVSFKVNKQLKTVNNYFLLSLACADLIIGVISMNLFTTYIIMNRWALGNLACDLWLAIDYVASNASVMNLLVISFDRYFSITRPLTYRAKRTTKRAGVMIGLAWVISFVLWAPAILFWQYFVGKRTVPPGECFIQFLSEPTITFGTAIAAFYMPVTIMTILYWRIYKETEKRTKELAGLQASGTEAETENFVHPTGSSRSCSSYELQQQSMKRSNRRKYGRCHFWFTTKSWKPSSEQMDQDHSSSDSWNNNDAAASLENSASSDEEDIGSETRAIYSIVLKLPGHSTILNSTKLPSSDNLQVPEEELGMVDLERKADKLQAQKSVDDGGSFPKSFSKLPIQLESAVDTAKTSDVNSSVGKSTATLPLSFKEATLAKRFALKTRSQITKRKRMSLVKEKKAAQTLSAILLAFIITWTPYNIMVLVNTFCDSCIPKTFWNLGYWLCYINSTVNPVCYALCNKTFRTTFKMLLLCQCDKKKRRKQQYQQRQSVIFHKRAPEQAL

| Compound | Ki (Human β2 adrenoceptor) | Ki (Human M3 receptor) |
| --- | --- | --- |
| O=C(Cc1ccc(OCCCCCNC[C@H](O)c2ccc(O)c3[nH]c(=O)ccc23)c(F)c1)N1CCC(C(=O)O[C@H]2CN3CCC2CC3)(c2ccccc2)CC1 [Compound 13, (R)-Quinuclidin-3-yl 1-(2-(3-fluoro-4-((5-(((R)-2-hydroxy-2-(8-hydroxy-2-oxo-1,2-dihydroquinolin-5-yl)ethyl)amino)pentyl)oxy)phenyl)acetyl)-4-phenylpiperidine-4-carboxylate] | > 10 nM | < 1 nM |
| O=C(Cc1ccc(CC(=O)N(CCCNC[C@H](O)c2ccc(O)c3[nH]c(=O)ccc23)Cc2cccc(OCc3ccccc3)c2)cc1)N1CCC(C(=O)O[C@H]2CN3CCC2CC3)(c2ccccc2)CC1 [Compound 41, (R)-Quinuclidin-3-yl 1-(2-(4-(2-((3-(benzyloxy)benzyl)(3-(((R)-2-hydroxy-2-(8-hydroxy-2-oxo-1,2-dihydroquinolin-5-yl)ethyl)amino)propyl)amino)-2-oxoethyl)phenyl)acetyl)-4-phenylpiperidine-4-carboxylate] | 1 to 10 nM | < 1 nM |
| CNC(=O)N(Cc1ccc(CNC[C@H](O)c2ccc(O)c3[nH]c(=O)ccc23)cc1)Cc1ccc(C(=O)N2CCC(C(=O)O[C@H]3CN4CCC3CC4)(c3ccccc3)CC2)cc1 [Compound 63, (R)-Quinuclidin-3-yl 1-(4-((1-(4-((((R)-2-hydroxy-2-(8-hydroxy-2-oxo-1,2-dihydroquinolin-5-yl)ethyl)amino)methyl)benzyl)-3-methylureido)methyl)benzoyl)-4-phenylpiperidine-4-carboxylate] | 1 to 10 nM | < 1 nM |
| O=C(c1cccc(OCCCCCNC[C@H](O)c2ccc(O)c3[nH]c(=O)ccc23)c1)N1CC(C(=O)O[C@H]2CN3CCC2CC3)(c2ccccc2)C1 [Compound 4A, (R)-Quinuclidin-3-yl 1-(3-((5-(((R)-2-hydroxy-2-(8-hydroxy-2-oxo-1,2-dihydroquinolin-5-yl)ethyl)amino)pentyl)oxy)benzoyl)-3-phenylazetidine-3-carboxylate] | < 1 nM | 1 to 10 nM |
| O=C(NCc1ccc(CCNC[C@H](O)c2ccc(O)c3[nH]c(=O)ccc23)cc1)c1ccc(C(=O)N2CC(C(=O)O[C@H]3CN4CCC3CC4)(c3ccccc3)C2)cc1 [Compound 16A, (R)-Quinuclidin-3-yl 1-(4-((4-(2-(((R)-2-hydroxy-2-(8-hydroxy-2-oxo-1,2-dihydroquinolin-5-yl)ethyl)amino)ethyl)benzyl)carbamoyl)benzoyl)-3-phenylazetidine-3-carboxylate] | < 1 nM | < 1 nM |
| O=C(c1ccc(OCCCCCNC[C@H](O)c2ccc(O)c3[nH]c(=O)ccc23)c(Cl)c1)N1CCC(C(=O)O[C@H]2CN3CCC2CC3)(c2ccccc2)CC1 [Compound 4, (R)-Quinuclidin-3-yl 1-(4-((5-(((R)-2-hydroxy-2-(8-hydroxy-2-oxo-1,2-dihydroquinolin-5-yl)ethyl)amino)pentyl)oxy)-3-chlorobenzoyl)-4-phenylpiperidine-4-carboxylate] | < 1 nM | 1 to 10 nM |
| O=C(CCc1ccc(OCCCCCNC[C@H](O)c2ccc(O)c3[nH]c(=O)ccc23)cc1)N1CC(C(=O)O[C@H]2CN3CCC2CC3)(c2ccccc2)C1 [Compound 5A, (R)-Quinuclidin-3-yl 1-(3-(4-((5-(((R)-2-hydroxy-2-(8-hydroxy-2-oxo-1,2-dihydroquinolin-5-yl)ethyl)amino)pentyl)oxy)phenyl)propanoyl)-3-phenylazetidine-3-carboxylate] | < 1 nM | 1 to 10 nM |
| O=C(Cc1ccc(OCCCCCNC[C@H](O)c2ccc(O)c3[nH]c(=O)ccc23)c(-c2ccsc2)c1)N1CCC(C(=O)O[C@H]2CN3CCC2CC3)(c2ccccc2)CC1 [Compound 14, (R)-Quinuclidin-3-yl 1-(2-(4-((5-(((R)-2-hydroxy-2-(8-hydroxy-2-oxo-1,2-dihydroquinolin-5-yl)ethyl)amino)pentyl)oxy)-3-(thiophen-3-yl)phenyl)acetyl)-4-phenylpiperidine-4-carboxylate] | < 1 nM | 1 to 10 nM |
| O=C(c1cc(Cl)c(OCCCCCNC[C@H](O)c2ccc(O)c3[nH]c(=O)ccc23)c(Cl)c1)N1CCC(C(=O)O[C@H]2CN3CCC2CC3)(c2ccccc2)CC1 [Compound 5, (R)-Quinuclidin-3-yl 1-(3,5-dichloro-4-((5-(((R)-2-hydroxy-2-(8-hydroxy-2-oxo-1,2-dihydroquinolin-5-yl)ethyl)amino)pentyl)oxy)benzoyl)-4-phenylpiperidine-4-carboxylate] | 1 to 10 nM | 1 to 10 nM |
| O=C(c1ccc(OCCCCCCNC[C@H](O)c2ccc(O)c3[nH]c(=O)ccc23)cc1)N1CCC(C(=O)O[C@H]2CN3CCC2CC3)(c2ccccc2)CC1 [Compound 49, (R)-Quinuclidin-3-yl 1-(4-((6-(((R)-2-hydroxy-2-(8-hydroxy-2-oxo-1,2-dihydroquinolin-5-yl)ethyl)amino)hexyl)oxy)benzoyl)-4-phenylpiperidine-4-carboxylate] | < 1 nM | < 1 nM |
| COc1cc(CNC(=O)c2ccc(C(=O)N3CC(C(=O)O[C@H]4CN5CCC4CC5)(c4ccccc4)C3)cc2)ccc1CNC[C@H](O)c1ccc(O)c2[nH]c(=O)ccc12 [Compound 20A, (R)-Quinuclidin-3-yl 1-(4-((4-((((R)-2-hydroxy-2-(8-hydroxy-2-oxo-1,2-dihydroquinolin-5-yl)ethyl)amino)methyl)-3-methoxybenzyl)carbamoyl)benzoyl)-3-phenylazetidine-3-carboxylate] | < 1 nM | < 1 nM |
| O=C(c1ccc(OCCCCCCNC[C@H](O)c2ccc(O)c3[nH]c(=O)ccc23)cc1)N1CCC(C(=O)O[C@H]2CN3CCC2CC3)(c2ccc(Cl)cc2)CC1 [Compound 51, (R)-Quinuclidin-3-yl 4-(4-chlorophenyl)-1-(4-((6-(((R)-2-hydroxy-2-(8-hydroxy-2-oxo-1,2-dihydroquinolin-5-yl)ethyl)amino)hexyl)oxy)benzoyl)piperidine-4-carboxylate] | < 1 nM | 1 to 10 nM |
| O=C(Cc1ccc(OCCCCCNC[C@H](O)c2ccc(O)c3[nH]c(=O)ccc23)cc1)N1CCC(C(=O)O[C@H]2CN3CCC2CC3)(c2ccccc2)CC1 [Compound 8, (R)-Quinuclidin-3-yl 1-(2-(4-((5-(((R)-2-hydroxy-2-(8-hydroxy-2-oxo-1,2-dihydroquinolin-5-yl)ethyl)amino)pentyl)oxy)phenyl)acetyl)-4-phenylpiperidine-4-carboxylate] | < 1 nM | < 1 nM |
